Where “and” joins values, the source holds several entries; their conditions need not be identical. Identical values can stand only once. Ends that are not written are not given here.
Columns and labels:
FIV Wo = experiment: Test of reduction of viral infectivity in mitogen-activated feline PBM cells; assay type: cell-based; settings: PBMC cells activated with a mitogen; serum dilution 1/5
Protocol: For the test of reduction of the viral infectivity, serial dilutions ( 1/50, 1/100, 1/200 and 1/400) of a stock suspension of Wo isolate and a single dilution of serum (⅕) are prepared in a complete RPMI medium containing 50 μM of 2-ME and 10 mM of HEPES.
The feline serum is mixed with an equal volume of the serial dilutions of virus and incubated in a final volume of 100 μl for one hour at 37° C.
The concentration of PBM cells activated with a mitogen is adjusted to 4×10^6/ ml in a complete RPMI medium comprising 2-ME, HEPES and 200 U/ml of recombinant human IL-2. 0.1 ml of cell suspension (4×10^5 cells) is added to the tubes.
After incubation overnight, the viral inoculum is recovered by washing the cells twice with 0.5 ml of complete RPMI medium.
The cells are then resuspended fin 0.2 ml of feline serum diluted in a complete RDMI medium comprising 2-ME, HEPES and 100 U/ml of IL-2, and then transferred into the wells of 96-well microtitration plates.
Half of the medium is replaced four days after the infection.
10 μl aliquots are recovered 7 days after the infection, for an analysis of the reverse transcriptase activity.
Given that the Wo strain was not adapted by passage on CrFK cells, the influence of the antibodies was studied on the infection in feline PBMC cells.

CD4+ T lymphocytes = experiment: Counting of circulating CD4+ T lymphocytes by flow cytometry; assay type: in vivo, cats; settings: acute infection with FIV Wo, FIG. 2
Protocol: Counting of the CD4^+ T lymphocytes is carried out at regular intervals before the test, on the day of the test and at regular intervals during the acute infection.
The CD4^+ T lymphocytes are counted by flow cytometry, using monoclonal antibodies (Clinisciences).
To evaluate the effect of the immunization on the pathology associated with a primary infection, circulating CD4^+ lymphocytes are counted before and after the test with the FIV Wo strain.

TM2 envelope peptide = experiment: Seroconversion ELISA after the virulence test, TM2 peptide; assay type: in vivo, cats; settings: for Binding of the sera to TM2, 3 weeks after the virulence test / Binding of the sera to TM2, 4 weeks after the virulence test / Binding of the sera to TM2, 5 weeks after the virulence test: ELISA, seral dilution 1/25, individual cats; for response against the TM2 peptide: at 4 weeks after the test
Protocol: (§1) The cats are subjected to a virulence test, one week after the final immunization, by means of an intraperitoneal inoculation of 10 CID50 of FIV Wo isolate, one CID50 corresponding to the dose capable of infecting 50% of the cats.
(§2) The production on of antibodies is evaluated before the test by means of an ELISA using an immobilized peptide (SU2, SU5, TM2 or TM3-19) and immunoprecipitation. After the test, the seroconversion is monitored by an ELISA using immobilized envelope peptides and a recombinant FTV capsid protein.
(§3) The ELISA with the immobilized envelope peptides corresponding to the immunogenic domains SU2 and TM2 and with the immobilized recombinant p25 protein (FIV capsid protein) is carried out as described in Avraméas A. et al. (Res. Virol., 1993, 144, 209-218).
Microplates (Immunolon II, Dynatech) are coated with 0.5 μg/well for the peptides and with 0.1 μg/well for the p25 protein.
The tests are carried out in duplicate and the results are expressed as average values.
(§4) After the test, the seroconversion against the envelope peptides and the p25 protein is evaluated at serum dilutions of 1/25 and 1/100, respectively.
The absorbance values (at 405 nm) are corrected by subtraction of the absorbance values obtained by binding with an immobilized control peptide.
The tests are normalized with reference to the binding of a mixture of serum from cats infected with FIV with a peptide representing the immunodominant domain of the FIV transmembrane glycoprotein (TM2) (Avraméas A. et al., Res. Virol., 1993, 144, 209-218).

[1] = system: envelope glycoproteins of the Petaluma strain; experiment: Immunoprecipitation of envelope glycoproteins by sera (metabolically labelled FL-4 cells); assay type: in vivo, FIV; settings: lysates of chronically infected FL-4 cells; groups of four cats
From the text: The sera collected on the day of the test (at a dilution of 1/40) are used to immunoprecipitate the envelope glycoproteins derived from the metabolically labelled FL-4 cells and feline mononuclear cells (PBM cells) infected with the FIV Wo strain, as described in G. Pancino et al. (Virology, 1995, 206, 796-806).
The recognition of the envelope glycoproteins is estimated by immunoprecipitation of the biosynthetically labelled envelope glycoprotein with sera collected on the day of the test, as summarized in Table I.

FIV Petaluma strain = experiment: Neutralization of infection of CrFK cells by sera of immunized cats; assay type: cell-based; settings: for neutralizing antibodies in sera of immunized cats: CrFK cell line
Protocol: The detection of antibodies neutralizing the infection of the CrFKs with the FIV Petaluma strain is carried out as described previously (Richardson J. et al., J. Gen. Virol., 1996, 77, 759-771).
To evaluate the function of the antibodies, the feline sera directed against the SU2 peptide are tested for their neutralizing value with respect to the infection of CrFK cells with the FIV Petaluma strain.

FIV Wo isolate = experiment: Plasmatic viraemia by isolation of the virus in PBM cell culture; assay type: in vivo, cats
From the text: as §1
The plasmatic viraemia is quantified by culturing PBM cells (Ho D. D. et a., N. Engl. J. Med., 1989, 321, 1621-1625).
The infection is estimated by determining the p25 by ELISA (Petcheck, IDEXX) in culture supernatants, obtained 14 and 21 days after the inoculation of different volumes of plasma (0.2, 2, 10, 40, 200 or 1000 μl). The final plasmatic dilution giving a positive culture is considered as the limit point.
The plasmatic viraemia is expressed as TCDID50/ml of plasma (→doses capable of infecting 50% of the tissue cultures).
For the cats immunized with the TM3-19 peptide and the control cats, the plasmatic viral load is evaluated 3 weeks after the test by isolating the virus.

[2] = system: viral components (SU2 and TM2 peptides, recombinant capsid protein); experiment: Antiviral humoral response after the virulence test (ELISA with viral components); assay type: in vivo; settings: in comparison with the control cats
Protocol: as §2, §3, §4
After testing with the FIV Wo strain, most of the cats show a humoral response with respect to the viral components, as illustrated by the ELISA with the SU2 and TM2 peptides, derived from the external and transmembrane glycoproteins, respectively, and the recombinant capsid protein.

Row | Substance | effect of sera on infection with FIV Wo (reduction of infectivity) (FIV Wo) | number of CD4+ lymphocytes after the infection (CD4+ T lymphocytes) | Binding of the sera to TM2, 3 weeks after the virulence test (TM2 envelope peptide) | Binding of the sera to TM2, 4 weeks after the virulence test (TM2 envelope peptide) | Binding of the sera to TM2, 5 weeks after the virulence test (TM2 envelope peptide) | response against the TM2 peptide (TM2 envelope peptide) | cats whose sera immunoprecipitate the envelope glycoproteins of the Petaluma strain [1] | neutralizing antibodies in sera of immunized cats (FIV Petaluma strain) | final dilution of serum which reduces the infection by at least 50% (FIV Petaluma strain; cat 327, CrFK cells) | Plasmatic viraemia, PBMC culture (FIV Wo isolate; 3 weeks after the test with 10 CID50 of FIV Wo, individual cats) | reduction in the level of infectious virus in the plasma (FIV Wo isolate; three-quarters of the cats, 3 weeks after the test, versus control cats) | development of an antiviral humoral response after the virulence test [2]
1 | SU2: peptide of the SU2 domain of the FIV surface envelope glycoprotein, SEQ ID NO: 2, used as immunogen (RAISSWKQRNRWEWRPD) | do not modify the infection | gradual reduction | 0 optical density | 1.3 optical density and 2.2 optical density and 2.1 optical density and 1.4 optical density | 2.1 optical density (2×) and 2.3 optical density and 2.5 optical density | developed a large response | 3 of the 4 cats (324, 325 and 327) | Only one cat (327) immunized with the SU2 peptide develops neutralizing antibodies | 1/160 | – | – | –
2 | KKGLQQLQEWEDWVGWIGN [TM3-19, 19-amino-acid fragment of the TM3 domain of the FIV Wo Env transmembrane glycoprotein (759-777)] | do not modify the infection | does not show a large decrease | 0 optical density (3×) and 1.2 optical density | 0.1 optical density and 2.4 optical density and 0 optical density and 0.5 optical density | 1.9 optical density and 2.5 optical density and 0 optical density and 2.3 optical density | all but one (347) of the cats immunized with the TM3-19 peptide show a weak or undetectable response | – | do not neutralize | – | 1 TCID50/ml of plasma (3×) and 1 × 10^2 TCID50/ml of plasma | about 3 logs | weaker and retarded in 3 cats (346, 348, 349)

Reference: patent US6391304B1, “Peptides derived from the ENV gene of the feline immunodeficiency virus and their applications” (Centre National de la Recherche Scientifique, priority 1997, dated 2002)
